Results reported in PubChem BioAssay (NCI).
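All cell lines were grown in 96-well plates and treated with compound for 48 hours. At the TGI there is no net growth.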 Where a SMILES comes first, the peptide text is derived from it. The star is where a group is joined. OSu = O=C1CCC(=O)N1O*

Assays:
Assay in all cases: growth of human tumour cells (NCI), 48 h
T-47D breast = system: T-47D breast
MOLT-4 leukemia = system: MOLT-4 leukemia
SW-620 colon = system: SW-620 colon
NCI-H522 lung = system: NCI-H522 lung
M14 melanoma = system: M14 melanoma
SK-OV-3 ovarian = system: SK-OV-3 ovarian
OVCAR-8 ovarian = system: OVCAR-8 ovarian

Compound	TGI (T-47D breast)	TGI (MOLT-4 leukemia)	TGI (SW-620 colon)	TGI (NCI-H522 lung)	TGI (M14 melanoma)	TGI (SK-OV-3 ovarian)	TGI (OVCAR-8 ovarian)
O=c1c2c3c(sc2nc2n1N=CN(c1ccc(F)cc1)C2)CCCC3	> 100 µM	> 100 µM	> 100 µM	> 100 µM	> 100 µM	> 100 µM	> 100 µM
C=CCCC(=O)C(=[N+]=[N-])C(=O)CCC(=O)c1ccccc1	> 10 µM	> 10 µM	> 10 µM	–	> 10 µM	> 10 µM	> 10 µM
O=c1[nH]nc(-c2ccc(F)cc2)cc1-c1ccccc1	> 100 µM	> 100 µM	> 100 µM	–	> 100 µM	> 100 µM	> 100 µM
O=C(C1OC1c1cccc([N+](=O)[O-])c1)C12CC3CC(CC(C3)C1)C2 (stereo not drawn)	26.3 µM	> 22.8 µM	8.44 µM	9.76 µM	22.8 µM	31.6 µM	5.92 µM
C/C(O)=C(\C=NC(=S)c1ccncc1)C(=O)Nc1ccccc1C	> 100 µM	–	> 100 µM	–	> 100 µM	> 100 µM	> 100 µM
COc1ccc(/C=C/C(=O)Oc2ccccc2OC)cc1	> 92.2 µM	3.44 µM	> 100 µM	> 72 µM	> 100 µM	> 100 µM	> 71.9 µM
CCOC(=O)/C=C(/C(=O)OCC)n1ccc(=O)n(Cc2cnnn2CCCCOC(C)=O)c1=O	> 100 µM	> 100 µM	43.2 µM	42.6 µM	–	> 100 µM	> 100 µM
CCOc1cc(-c2nc3cc(F)ccc3s2)ccc1O	28.1 µM	–	40.7 µM	24.2 µM	33.4 µM	33 µM	31.2 µM
CC(=O)n1nc(-c2ccc3ccccc3c2)nc1C	> 100 µM	> 100 µM	> 100 µM	> 100 µM	> 100 µM	> 100 µM	> 100 µM
O=C(Nc1ccc2cc3ccccc3cc2c1)c1cc2c(cc1Cl)Sc1nccn1S2(=O)=O	> 100 µM	> 100 µM	> 100 µM	> 100 µM	> 100 µM	> 100 µM	> 100 µM
CC1(C)OC2OC(COC(=O)c3ccc(C#N)cc3)C3OC(C)(C)OC3C2O1 (stereo not drawn)	–	> 75 µM	> 75 µM	> 75 µM	> 75 µM	> 75 µM	> 75 µM
CC(=O)O[C@H]1C(=O)[C@@]2(C)[C@H]([C@H](OC(=O)c3ccccc3)[C@]3(O)C[C@H](OC(=O)[C@H](O)[C@@H](NC(=O)c4ccc(N(C)C)cc4)c4ccccc4)C(C)=C1C3(C)C)[C@]1(OC(C)=O)CO[C@@H]1C[C@@H]2O	> 50 µM	> 21.9 µM	> 50 µM	–	> 50 µM	> 50 µM	> 50 µM
CC(=O)NC1(C)C(C)C2CC1C(C)C2(C)C (stereo not drawn)	> 100 µM	> 100 µM	> 100 µM	> 100 µM	> 100 µM	> 100 µM	> 100 µM
Cc1cc2nnc(C(N)=O)c(N)c2cc1C	> 100 µM	> 100 µM	> 100 µM	> 100 µM	> 100 µM	> 100 µM	> 100 µM
CC(=O)NC1C(OCc2ccccc2)OC(CO)C(O)C1OCC(=O)N[C@@H](C)C(=O)N[C@H](CCC(=O)NCCNc1ccc([N+](=O)[O-])c2[nH]c3ccccc3c(=O)c12)C(N)=O (stereo partly drawn)	> 100 µM	–	> 100 µM	> 100 µM	> 100 µM	> 100 µM	61.2 µM
Cc1cc(NS(=O)(=O)c2ccc(Nc3c4ccccc4nc4c(C(=O)NCCO)cccc34)cc2)no1	> 100 µM	> 100 µM	83.8 µM	30.2 µM	70 µM	> 100 µM	> 100 µM
CC(=O)c1c(O)n(-c2ccc(C)cc2)c(=O)c2c(N)n[nH]c12	> 100 µM	> 100 µM	> 100 µM	> 100 µM	> 100 µM	> 100 µM	> 100 µM
COc1cc(OC)c(C2(c3c(OC(C)C)c(=O)c3=O)SCCCS2)cc1OC	> 100 µM	–	> 100 µM	> 100 µM	> 100 µM	> 100 µM	> 100 µM
NCCCCC(NC(=O)C(N)Cc1ccc(O)cc1)C(=O)NC(Cc1ccc(O)cc1)C(=O)NC(CCCCN)C(=O)ON1C(=O)CCC1=O (stereo not drawn) (H-YKYK-OSu; configuration not given here)	> 100 µM	> 100 µM	> 100 µM	–	> 100 µM	–	> 100 µM
CCC(=O)Nc1ccc(NCC(=O)Nc2ccc(OC)cc2)cc1	70.1 µM	> 100 µM	> 100 µM	29.5 µM	> 100 µM	95.3 µM	42.8 µM
O=P1(Cc2ccccc2)c2ccccc2-c2ccccc21	6 µM	30.5 µM	35 µM	14.1 µM	20.2 µM	> 100 µM	36.7 µM
C/C(O[Si](C(C)C)(C(C)C)C(C)C)=C(\C)C(=O)N(C)c1ccccc1Cl	> 100 µM	> 100 µM	> 100 µM	> 100 µM	> 100 µM	–	> 100 µM
Cc1cn(C2OC(CO)C(O)C2F)c(=O)[nH]c1=O (stereo not drawn)	> 100 µM	> 100 µM	> 100 µM	> 100 µM	> 100 µM	> 100 µM	> 100 µM
CC(C)=C[C@@H]1O[C@H](O)[C@@H]([C@H]2CC[C@@]3(C)[C@@H]4CC[C@H]5C(C)(C)C(=O)CC[C@@]56C[C@@]46CC[C@]23C)[C@@H]1O	35.5 µM	32.4 µM	29.7 µM	30.3 µM	57.3 µM	34.6 µM	30.4 µM
Cc1cc(N(CCC#N)CCC#N)ccc1/C(N=Nc1ccc([N+](=O)[O-])cc1)=N\NC(=O)c1ccccc1	97.1 µM	> 100 µM	–	44.7 µM	> 100 µM	> 100 µM	> 100 µM
COC(=O)C1(O)C(c2ccccc2)NC2(C)CCCC21 (stereo not drawn)	> 100 µM	> 100 µM	> 100 µM	> 100 µM	> 100 µM	> 100 µM	> 100 µM
